In PubChem BioAssay AID977628 (Broad Institute, 2014):
Results filed as inconclusive are left out. Active and inactive are the calls of the source.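 How the source made its calls: active means compound lowering the normal-ribosome reporter at least twice as much as the humanized-ribosome reporter, growth loss under a set limit; inconclusive means no clear call, values can overlap the other calls; inactive means the rest.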

Tests used:
[1] = system: E. coli WT GFP strain growth, fluorescence, 24 h; experiment: growth of wild-type and h24-humanized E. coli strains – h24 mutant RFP vs wild-type GFP, cherry-pick, dose response (AID 977628)
[2] = system: E. coli mixed WT/h24 culture total growth, OD600, 24 h; experiment: as above

Row | SMILES | AC50 [1] | AC50 [2] [µM]
1 | CCn1c(CNC(=O)c2ccccc2F)cc2cc(C)ccc21 | > 100 µM (inactive) | > 100
2 | CCN(c1ccccc1)S(=O)(=O)c1ccc(OC)c(OC)c1 | > 100 µM (inactive) | > 100
3 | CC(=O)c1c(C)nn(CC(O)COc2ccc3c(c2)CCC3)c1C (stereo not given) | > 100 µM (inactive) | 50.1
4 | Cc1ccc(C(=O)Nc2cccc(-c3cn4ccccc4n3)c2)cc1 | > 100 µM (inactive) | 51.5
5 | Cc1ccc(NC(=O)c2ccc(CSc3ccccn3)cc2)c(O)c1 | > 100 µM (inactive) | 22.2
6 | O=C(COC(=O)C12CC3CC(CC(O)(C3)C1)C2)NCCc1ccc(Cl)cc1 | > 100 µM (inactive) | > 100
7 | CCn1cc(Cl)c(C(=O)Nc2cccc(C(F)(F)F)c2)n1 | > 100 µM (inactive) | > 100
8 | O=C(CN(c1ccc(F)cc1)S(=O)(=O)c1ccccc1)Nc1ccccc1C(=O)O | > 100 µM (inactive) | > 100
9 | COc1ccc(S(=O)(=O)N2CCCCN3[C@@H](CO)[C@H](c4ccc(C#CC(C)C)cc4)[C@@H]3C2)cc1 | > 100 µM (inactive) | 47
10 | Cc1cc(NC(=O)CSc2nccn2-c2cccc(C)c2C)no1 | > 100 µM (inactive) | > 100
11 | NC(=O)c1ccsc1NC(=O)COC(=O)CCOc1ccccc1 | > 100 µM (inactive) | 46.3
12 | O=C(c1ccc(-c2ccccc2)c(F)c1)C1CCCN(CCCn2cccn2)C1 (stereo not given) | > 100 µM (inactive) | > 100
13 | O=C(CSc1ccc(-c2cccnc2)nn1)N1CCCc2ccccc21 | > 100 µM (inactive) | > 100
14 | O=C(Cn1cc(COc2c(F)c(F)cc(F)c2F)nn1)c1ccc(O)cc1 | > 100 µM (inactive) | > 100
15 | O=C(NCc1ccc(Cl)cc1)c1csc(-c2cccnc2)n1 | > 100 µM (inactive) | 49.1
16 | CCc1ccc(NC(=O)COC(=O)CCCC2=NS(=O)(=O)c3ccccc3N2)cc1 | > 100 µM (inactive) | > 100
17 | COCC#Cc1ccc2c(c1)O[C@@H](CN(C)S(=O)(=O)c1cccc(F)c1)[C@@H](C)CN([C@H](C)CO)S2(=O)=O | > 100 µM (inactive) | 50
18 | O=C(CSc1nc2ccccc2[nH]1)Nc1cccc(S(=O)(=O)N2CCOCC2)c1 | > 100 µM (inactive) | 47.9
19 | CCCN(CC1CC1)C(=O)CSc1ncnc2sccc12 | > 100 µM (inactive) | > 100
20 | COc1ccc(-c2ccccc2)cc1NC(=O)c1ccncc1 | > 100 µM (inactive) | > 100
21 | CCOC(=O)c1[nH]c2ccccc2c1NC(=O)c1ccc(Br)o1 | > 100 µM (inactive) | 41.7

Row | SMILES | AC50 [1] | AC50 [2] [µM]
22 | COc1ccc(C(=O)Nc2ccc(Nc3ccccc3)cc2)cc1[N+](=O)[O-] | > 100 µM (inactive) | > 100
23 | COc1cc2c(cc1NC(=O)C(C)Sc1cccc[n+]1[O-])oc1ccccc12 (stereo not given) | > 100 µM (inactive) | > 100
24 | Cc1onc(-c2ccccc2Cl)c1C(=O)N[C@@H](C)c1ccccc1 | > 100 µM (inactive) | > 100
25 | COc1ccc(CC(=O)NCc2csc(-c3cccs3)n2)cc1OC | > 100 µM (inactive) | > 100
26 | O=C(Cn1c(CO)nc2ccccc21)NCCc1ccc(F)cc1 | > 100 µM (inactive) | > 100
27 | Cc1ccc(Oc2ccc(S(=O)(=O)N3CCOCC3)cc2C(N)=O)cc1C | > 100 µM (inactive) | > 100
28 | NS(=O)(=O)c1cccc(NC(=O)CSc2nc3ccccc3n2-c2ccccc2)c1 | > 100 µM (inactive) | 38.1
29 | O=C(Nc1cccc(Cl)c1)N1C[C@@H]2[C@H](c3ccccc31)[C@@H](CO)N2CC1CCCCC1 | > 100 µM (inactive) | 41.9
30 | CN(CCOc1ccccc1)C(=O)c1ccc(OC2CCN(C(=O)C3CC3)CC2)cc1 | > 100 µM (inactive) | > 100
31 | Cc1ccccc1COc1ccc(-c2nn[nH]n2)cc1 | > 100 µM (inactive) | 39.4
32 | O=C(CCCn1c(=S)[nH]c2ccsc2c1=O)Nc1ccc2c(c1)OCCO2 | > 100 µM (inactive) | 46.7
33 | Cc1cccc(Nc2nc(-c3ccc(F)cc3)cs2)n1 | > 100 µM (inactive) | > 100
34 | Cc1cc(CNC(=O)COc2ccc(C)c(C)c2)c2ccccc2n1 | > 100 µM (inactive) | 39
35 | Cc1ccc(Cc2c(-c3cccc(Br)c3)nc3ccc(C)cn23)cc1 |  | > 100
36 | C[C@@H]1CN([C@@H](C)CO)C(=O)c2cc(NC(=O)C3CC3)ccc2O[C@H]1CN(C)C(=O)Nc1ccc(C(F)(F)F)cc1 |  | > 100
37 | CC(C)Oc1nc(-c2ccccc2Cl)nc2ccccc12 |  | > 100
38 | Cc1cccc(SCC(=O)Nc2ccccc2[N+](=O)[O-])c1 |  | > 100
39 | COc1ccc(NC(=O)c2cccs2)cc1C(=O)N1CCN(c2ccccc2)CC1 |  | > 100
40 | c1ccc(Nc2ccc3ccccc3c2)cc1 |  | > 100
41 | Cc1cccc(C)c1NC(=O)CNC(=O)C(C)N1CCN(c2cccc(Cl)c2)CC1 (stereo not given) |  | > 100
